This note sets out measurements from patent US6525063B2, “Antitumour 1,5-diazaanthraquinones” (Universidad Complutense de Madrid, priority 1998, dated 2003).

The IC50 is the concentration at which inhibition is half-maximal. The term melting point denotes the temperature of the solid-liquid transition.

A value given as a limit tells only on which side of the number the result lay.

One series relates to P388 (ATCC CCL-46) cells. The series is described as follows: in vitro cytotoxic assay, P388 cells. In kind it is cell-based. The settings on record: 72 h; P388 lymphoid neoplasm from DBA/2 mouse, suspension culture; three days of incubation; approximate IC50 by growth vs control. The method, then: (§1) Cells were maintained in logarithmic phase of growth in Eagle's Minimum Essential Medium, with Earle's Balanced Salts, with 2.0 mM L-glutamine, with non-essential amino acids, without sodium bicarbonate (EMEM/neaa); supplemented with 10% Fetal Calf Serum (FCS), 10^−2 M sodium bicarbonate and 0,1 g/l penicillin-G+streptomycin sulfate.
(§2) A screening procedure has been carried out to determine and compare the antitumour activity of these compounds, using an adapted form of the method described by Raymond J. Bergeron, Paul F. Cavanaugh Jr., Steven J. Kline, Robert G. Hughes, Jr., Gary T. Elliot and Carl W. Porter. Antineoplastic and antiherpetic activity of spermidine catecholamide iron chelators. Biochem. Bioph. Res. Comm. 1984, 121, 848-854. The antitumour cells employed were P388 (ATCC CCL-46) (suspension culture of a lymphoid neoplasm from DBA/2 mouse), A549 (ATCC CCL-185) (monolayer culture of a human lung carcinoma), HT-29 (ATCC HTB-38) (monolayer culture of a human colon carcinoma) and SK-MEL-28 (ATCC HTB-72) (monolayer culture of a human melanoma).
P388 (ATCC CCL-46) cells were seeded into 16 mm wells at 1×10^4 cells per well in 1 ml aliquots of MEM 5FCS containing the indicated concentration of drug. A separate set of cultures without drug was seeded as control growth to ensure that cells remained in exponential phase of growth. All determinations were carried out in duplicate.
(§3) The results of the in vitro cytotoxic assays for these compounds (4a), (4b), (4c), (4d), (11a), (12a), (13a), (13b), and (14a) with the cellular lines P388 (ATCC CCL-46), A549 (ATCC CCL-185), HT-29 (ATCC HTB-38) and SK-MEL-28 (ATCC HTB-72) are shown in the following Table.

For series [1], the system named is HT-29 (ATCC HTB-38) cells. The series is described as follows: in vitro cytotoxic assay, HT-29 cells. Type of series: cell-based. The settings on record: 72 h; HT-29 human colon carcinoma monolayer; three days of incubation; Crystal Violet staining; approximate IC50. Here is the method: as §1, §2
(§4) A549 (ATCC CCL-185), HT-29 (ATCC HTB-38) and SK-MEL-28 (ATCC HTB-72) cells were seeded into 16 mm wells at 2×10^4 cells per well in 1 ml aliquots of MEM 10FCS containing the indicated concentration of drug. A separate set of cultures without drug was seeded as control growth to ensure that cells remained in exponential phase of growth. All determinations were carried out in duplicate. After three days of incubation at 37° C., 10% CO2 in a 98% humid atmosphere, the wells were stained with 0.1% Crystal Violet. An approximately IC50 was determined by comparing the growth in wells with drug to the growth in wells control.
as §3

The test system of series [2] is A549 (ATCC CCL-185) cells. The series is described as follows: in vitro cytotoxic assay, A549 cells. Type of series: cell-based. The settings on record: 72 h; A549 human lung carcinoma monolayer; three days of incubation; Crystal Violet staining; approximate IC50. Here is the method:
as §1, §2, §4, §3

Series [3] relates to SK-MEL-28 (ATCC HTB-72) cells. The series is described as follows: in vitro cytotoxic assay, SK-MEL-28 cells. In kind it is cell-based. The following applies: 72 h; SK-MEL-28 human melanoma monolayer; three days of incubation; Crystal Violet staining; approximate IC50. The method, then: as §1, §2, §4, §3

Consider `CCc1cnc2c(c1)C(=O)c1ncc(CC)cc1C2=O` [(4a), 3,7-Diethyl-1,5-diazaanthraquinone], for which the melting point lay within 218 to 220 °C. The compound also had an IC50 in the series with P388 (ATCC CCL-46) cells of 0.45 µM. Further, the IC50 in series [1] amounted to 0.19 µM. In series [2], this compound had an IC50 of 0.05 µM. For the same compound, in series [3], the concentration for half-maximal inhibition (IC50) stood at 0.05 µM.

With `Cc1cnc2c(c1)C(=O)c1ncc(C)cc1C2=O` [(4b), 3,7-Dimethyl-1,5-diazaanthraquinone], the melting point is greater than 300 °C. Besides, it took 7.35 µM to reach half-maximal inhibition with P388 (ATCC CCL-46) cells (IC50). The compound further came in with an IC50 in series [1] of 0.51 µM. In series [2], this compound returned an IC50 of 0.05 µM. Further, the IC50 in series [3] turned out to be 0.11 µM.

The compound `Cc1ccnc2c1C(=O)c1nccc(C)c1C2=O` [(4c), 4,8-Dimethyl-1,5-diazaanthraquinone] gave a melting point of 253 to 254 °C. The same compound came in with an IC50 in the series with P388 (ATCC CCL-46) cells of 4.2 µM. Besides, inhibition in series [1] was half-maximal at 1.05 µM (IC50). The same compound displayed an IC50 in series [2] of 0.5 µM. Further, the IC50 in series [3] stood at 1.05 µM.

The compound `CCc1c(C)cnc2c1C(=O)c1ncc(C)c(CC)c1C2=O` [(4d), 4,8-Diethyl-3,7-dimethyl-1,5-diazaanthraquinone] returned a melting point of 180 to 182 °C. Besides, in the series on P388 (ATCC CCL-46) cells, the IC50 amounted to 3.4 µM. This compound registered an IC50 in series [1] of 3.4 µM. Also, in series [2], the half-maximal inhibitory concentration (IC50) came to 3.4 µM. The compound also displayed an IC50 in series [3] of 3.4 µM.

Take `Cc1cnc2c(c1)C(=O)c1nccc(Cl)c1C2=O` [(11a), 8-Chloro-3-methyl-1,5-diazaanthraquinone]: the melting point lay in the range of 208 to 210 °C. In the series on P388 (ATCC CCL-46) cells, the midpoint of inhibition, the IC50, lay at 0.15 µM. In series [1], this compound had an IC50 of 0.04 µM. In addition, in series [2], the midpoint of inhibition, the IC50, lay at 0.03 µM. Further, in series [3], half-maximal inhibition (IC50) was put at 0.03 µM.

`CC1C=CN(N(C)C)C2=C1C(=O)c1nccc(Cl)c1C2=O` (stereo not shown) [(12a), 8-Chloro-1-dimethylamino-4-methyl-1,4-dihydro-1,5-diazaanthraquinone]: the IC50 with P388 (ATCC CCL-46) cells was 3.29 µM; in series [1], 1.65 µM; in series [2], 0.33 µM; in series [3], 0.33 µM.

As for `Cc1ccnc2c1C(=O)c1nccc(Cl)c1C2=O` [(13a), 4-Chloro-8-methyl-1,5-diazaanthraquinone], the melting point is greater than 300 °C. Besides, the IC50 with P388 (ATCC CCL-46) cells came to 3.87 µM. Also, the IC50 in series [1] was 1.93 µM. In addition, the IC50 in series [2] was determined as 0.19 µM. Moreover, the 50% inhibitory concentration (IC50) in series [3] is 0.19 µM.

As for `O=C1c2nccc(-c3ccccc3[N+](=O)[O-])c2C(=O)c2nccc(Cl)c21` [(13b), 4-Chloro-8-(o-nitrophenyl)-1,5-diazaanthraquinone], the IC50 was determined as 0.27 µM in the series on P388 (ATCC CCL-46) cells, 0.27 µM in series [1], 0.03 µM in series [2] and 0.07 µM in series [3].

Consider `Cc1ccnc2c1C(=O)c1nccc(N(C)C)c1C2=O` [(14a), 4-Dimethylamino-8-methyl-1,5-diazaanthraquinone], for which the melting point fell in the range of 97 to 100 °C. Further, it took 9.36 µM to reach half-maximal inhibition in the series on P388 (ATCC CCL-46) cells (IC50). The compound further had an IC50 in series [1] of 0.94 µM. In series [2], this compound displayed an IC50 of 0.37 µM. The IC50 in series [3] worked out at 0.37 µM.
